Test results: US10046060B2, “Co-administration of an agent linked to an internalization peptide with an anti-inflammatory” (NoNO Inc., priority 2007, dated 2018)
Where two headings read alike, the source gives them in different places. Each block holds one compound with its values, some of them ahead of it. Square brackets hold non-standard residues; d marks the D form. Ends that are not written are not given here.

Assays:
mast cells = test: Mast cell degranulation assay (tryptase activity); format: cell-based, mouse; design: Mast cell degranulation (relative tryptase activity): dose or concentration left out as unconfirmed; conditions: for Dose dependence of mast cell degranulation: increasing concentrations, FIG. 3
cerebral ischemia = conditions: reported in WO 2008/014917; cited from earlier work
PSD95 / NMDAR 2B = PSD95 / NMDAR 2B (Homo sapiens, UniProt P78352); conditions: reported by Bach; cited from earlier work
PSD95 / NMDAR 2B, sequence (P78352 whole entry, the tested form may be a part): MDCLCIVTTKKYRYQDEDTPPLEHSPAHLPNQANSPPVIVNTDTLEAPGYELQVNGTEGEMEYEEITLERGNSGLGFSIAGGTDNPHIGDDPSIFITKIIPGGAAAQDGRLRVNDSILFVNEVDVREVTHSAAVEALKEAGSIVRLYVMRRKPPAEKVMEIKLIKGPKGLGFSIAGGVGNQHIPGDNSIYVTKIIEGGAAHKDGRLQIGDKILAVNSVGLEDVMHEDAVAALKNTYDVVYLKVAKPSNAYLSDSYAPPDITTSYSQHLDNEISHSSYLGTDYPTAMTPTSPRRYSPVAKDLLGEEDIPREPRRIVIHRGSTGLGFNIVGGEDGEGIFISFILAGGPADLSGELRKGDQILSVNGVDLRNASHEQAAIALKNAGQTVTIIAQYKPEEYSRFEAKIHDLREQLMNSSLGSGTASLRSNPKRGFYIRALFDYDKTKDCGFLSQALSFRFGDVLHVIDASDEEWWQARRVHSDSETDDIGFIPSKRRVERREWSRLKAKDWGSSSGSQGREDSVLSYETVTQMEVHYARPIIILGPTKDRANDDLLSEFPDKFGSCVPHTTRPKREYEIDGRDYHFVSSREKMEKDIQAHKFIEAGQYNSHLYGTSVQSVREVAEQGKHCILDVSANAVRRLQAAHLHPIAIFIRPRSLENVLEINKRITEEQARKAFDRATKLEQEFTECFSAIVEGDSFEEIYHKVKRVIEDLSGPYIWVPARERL

Sprague Dawley rats = test: MAP in rats: lodoxamide co-formulation or cromolyn infusion with Tat-NR2B9c; format: in vivo, rat; conditions: for Effect on drop in MAP resulting from Tat-NR2B9c: cromolyn infused for three minutes immediately before Tat-NR2B9c, FIG. 13B
[1] = Table 1 comment; cited from earlier work
[2] = system: animal model of infarction; conditions: cited from earlier work
rats = test: Mean arterial pressure (MAP) in rats after Tat peptides with or without anti-inflammatory agents
[3] = system: Sprague Dawley rats, P3VO model of stroke; test: Pial 3 vessel occlusion (P3VO) model of stroke, infarct size; format: in vivo, rat; conditions: 3 nM/g i.v. 1 h after stroke, vs saline
rat 3PVO model of stroke = test: Rat 3PVO model of stroke, lodoxamide co-formulation; format: in vivo; conditions: FIG. 15
Beagle dogs = test: Antihistamine pre-treatment before Tat-NR2B9c in dogs; conditions: benadryl 1 mg/kg 30 minutes before 12.5 mg/kg Tat-NR2B9c; female dog

Compound: KLSSIESDV (Synthetic pharmacologic agent) [NR2B9c]
Mast cell degranulation (relative tryptase activity) (mast cells; FIG. 2): did not
Mast cell degranulation, Tat sequence variants (mast cells; all at 50 μM, Table 5 prints 125 mg/ml, FIG. 4): did not elicit this reaction

Compound: vdseisslk-rrrqrrkkrgyin ([dV][dD][dS][dE][dI][dS][dS][dL][dK][dR][dR][dR][dQ][dR][dR][dK][dK][dR]G[dY][dI][dN]; also: retro-inverso)
Inhibition of cerebral ischemia (cerebral ischemia): effective in inhibiting cerebral ischemia

Compound: IESDV (synthetic pentamer peptide from the C-terminus of NMDAR 2B)
Inhibition of binding of NMDAR 2B to PSD95 (PSD95 / NMDAR 2B): effective in inhibiting binding of NMDAR 2B to PSD95

Compound: N#Cc1cc(NC(=O)C(=O)O)c(Cl)c(NC(=O)C(=O)O)c1 [lodoxamide, 2-[2-chloro-5-cyano-3-(oxaloamino)anilino]-2-oxoacetic acid]
Effect on drop in MAP resulting from Tat-NR2B9c injection (Sprague Dawley rats; 6 mg/kg lodoxamide co-formulated with Tat-NR2B9c (3 mg/kg, 3 mM/kg elsewhere in the source), 2 minute infusion, FIG. 13A): completely abrogate the drop in MAP

Compound: NC(=O)CN1CCCC1=O [Piracetam]
BBB crossing [1]: Cannot cross

Compound: YGRKKRRQRRRKLSSIEADA (Synthetic Tat-NR2B9c peptide with 2 point mutations in the PSD-95 binding domain) [AA]
Dose dependence of mast cell degranulation (mast cells): dose dependent

Effect on MAP in the absence of Tat-NR2B9c (rats; cromolyn plus saline control): did not itself affect MAP
Compound: O=C(O)c1cc(=O)c2c(OCC(O)COc3cccc4oc(C(=O)O)cc(=O)c34)cccc2o1 [cromolyn, 5,5′-(2-hydroxypropane-1,3-diyl)bis(oxy)bis(4-oxo-4H-chromene-2-carboxylic acid)]
Effect on drop in MAP resulting from Tat-NR2B9c (Sprague Dawley rats): completely abrogate a drop in MAP
Effect on drop in MAP resulting from Tat-NR2B9c (Sprague Dawley rats; listed as Cromolyn): completely abrogated the drop in MAP
Direct activity in inhibiting infarctions ([2]; administered i.c.v.): has direct activity in inhibiting infarctions
Direct activity in inhibiting infarctions ([2]; administered intravenously): not intravenously
Effect on decline of MAP due to Rv-Tat-NR2B9c (rats; cromolyn before Rv-Tat-NR2B9c, FIGS. 8E and F): significantly inhibited decline of MAP values

Compound: H-YGRKKRRQRRRKLSSIESDV-OH [Tat-NR2B9c]
Infarct size 24 hours after P3VO surgery ([3]; female rats): complete lack of infarct
Infarct size 24 hours after P3VO surgery ([3]; male rats): significantly decreased infarct size
Dose dependence of mast cell degranulation (mast cells): dose dependent
Infarction size relative to vehicle control (rat 3PVO model of stroke): significantly inhibited infarction size

Effect of the agent itself on MAP (rats; Ranitidine only): no effect on MAP itself
Compound: CNC(=C[N+](=O)[O-])NCCSCc1ccc(CN(C)C)o1 [Ranitidine]

Compound: COc1ccc(CN(CCN(C)C)c2ccccn2)cc1 [pyrilamine]
Reduction of maximal decline in blood pressure due to Tat-NR2B9c (rats; pyrilamine, FIGS. 10A-D): did not achieve statistical significance

Compound: NCCc1ccc(O)c(O)c1 [Dopamine]
BBB crossing [1]: Cannot cross

Compound: CN[C@H](CC(C)C)C(=O)N[C@H]1C(=O)N[C@@H](CC(N)=O)C(=O)N[C@H]2C(=O)N[C@H]3C(=O)N[C@H](C(=O)N[C@H](C(=O)O)c4cc(O)cc(O)c4-c4cc3ccc4O)[C@H](O)c3ccc(c(Cl)c3)Oc3cc2cc(c3O[C@@H]2O[C@H](CO)[C@@H](O)[C@H](O)[C@H]2O[C@H]2C[C@](C)(N)[C@H](O)[C@H](C)O2)Oc2ccc(cc2Cl)[C@H]1O [Vacomycin]
halflife [1]: uptake, 4-6 hr

Compound: N[C@@H](Cc1ccc(O)c(O)c1)C(=O)O [Levodopa]
halflife [1]: halflife = 1.5 hrs

Reaction after pre-treatment (Beagle dogs): no reaction
Compound: CN(C)CCOC(c1ccccc1)c1ccccc1 [diphenhydramine]
Effect of the agent itself on blood pressure (rats; diphenhydramine 1 mg/kg): did not itself reduce blood pressure
Effect on decline of blood pressure due to Tat-NR2B9c (rats; diphenhydramine 1 mg/kg): not observed to have a significant effect
Effect of the agent itself on blood pressure before Tat-NR2B9c (rats; diphenhydramine 12.5 mg/kg): caused a sharp reduction in blood pressure
Effect on decline in blood pressure due to Tat-NR2B9c (rats; diphenhydramine 12.5 mg/kg, FIGS. 9A-D): significantly inhibited decline in blood pressure
